Measurements reported in patent US10856562B2, “Flavor composition and edible compositions containing same” (MARS, INCORPORATED, priority 2013, dated 2020).
Entries after “also recorded” stand apart in the source; their conditions may differ. Square brackets hold non-standard residues; d marks the D form. Ends that are not written are not given here. pGlu = O=C1CC[C@@H](C(=O)O)N1

How the values were obtained:
panelists [1] = assay: Increased salt perception protocol: salt 5 reference (0.35% salt solution) re-tasted after expectoration of test sample; format: in vivo, human; settings: for Astringent, after-expectoration perception / Bitter, after-expectoration perception / Flinty/Mineral, after-expectoration perception / Metallic, after-expectoration perception / Numbing, after-expectoration perception / Salt, after-expectoration perception (mean salt perception after expectoration) / Sour, after-expectoration perception / Sweet, after-expectoration perception: salt 5 reference re-tasted, mean score
Text: 1. Each panelist tasted a salt reference (0.35% salt solution) with a reference salt intensity of 5.0 which provided a baseline for each panelist for salt intensity. 2. Each panelist tasted a test sample (0.1 ppb, 0.5 ppb, 1.0 ppb, 10.0 ppb or 40.0 ppb all in 0.2% NaCl solution). Only one sample was tasted per session. 3. Each panelist re-tasted the salt reference (5.0 intensity) and rated it for salt intensity as well as any other basic taste, chemical feeling factor, or aromatic perceived. Thus, any increased salt perception as a result of the test sample would be determined, as well as any other perceptions present. Attribute Perception Protocol • The panelists evaluated each sample using the following procedure • Descriptive Profiles (flavor and chemical feeling factors) of 5 levels of salt enhancing solutions • Individual data was collected for the flavor and chemical feeling factors of the product in-mouth • Increased Salt Perception Protocol • Each panelist tasted salt 5 reference (0.35% salt solution)—to ground themselves on salt intensity of 5.0. • Each panelist tasted the test sample (0.1 ppb, 0.5 ppb, 1.0 ppb, 10.0 ppb or 40.0/50.0 ppb all in 0.2% NaCl solution: only one per session) • Each panelist then re-tasted the salt 5 reference and rated it for salt intensity as well as any other basic taste, chemical feeling factor, or aromatic perceived. This captured any increased salt perception indicated by the test sample as well as any other perceptions present. • Return to Baseline Protocol • After evaluating the sample for salt & other perceptions, panelists re-tasted the salt 5 reference at 1 minute intervals until their perception of the salt 5 saltiness intensity had returned to 5.0. Each panelist recorded their salt intensity at each interval and took qualitative notes on other perceptions seen in aftertaste. Sample Preparation

panelists [2] = assay: Return to baseline protocol: salt reference re-tasted at 1 minute intervals; format: in vivo, human
Description: After evaluating the sample for salt and other perceptions (step 3 above), each panelist re-tasted the salt reference (5.0 intensity) at 1 minute intervals until their perception of the saltiness intensity of the reference returned to 5.0. Each panelist recorded salt intensity at each interval and took qualitative notes on other perceptions seen in aftertaste. Attribute Perception Protocol • The panelists evaluated each sample using the following procedure • Descriptive Profiles (flavor and chemical feeling factors) of 5 levels of salt enhancing solutions • Individual data was collected for the flavor and chemical feeling factors of the product in-mouth • Increased Salt Perception Protocol • Each panelist tasted salt 5 reference (0.35% salt solution)—to ground themselves on salt intensity of 5.0. • Each panelist tasted the test sample (0.1 ppb, 0.5 ppb, 1.0 ppb, 10.0 ppb or 40.0/50.0 ppb all in 0.2% NaCl solution: only one per session) • Each panelist then re-tasted the salt 5 reference and rated it for salt intensity as well as any other basic taste, chemical feeling factor, or aromatic perceived. This captured any increased salt perception indicated by the test sample as well as any other perceptions present. • Return to Baseline Protocol • After evaluating the sample for salt & other perceptions, panelists re-tasted the salt 5 reference at 1 minute intervals until their perception of the salt 5 saltiness intensity had returned to 5.0. Each panelist recorded their salt intensity at each interval and took qualitative notes on other perceptions seen in aftertaste. Sample Preparation

Substance: [pGlu]-Val-Val [SE-17]
- Astringent, after-expectoration perception (panelists [1]; 0.1 ppb in 0.2% NaCl): 0.0
- Bitter, after-expectoration perception (panelists [1]; 0.1 ppb in 0.2% NaCl): 0.0
- Flinty/Mineral, after-expectoration perception (panelists [1]; 0.1 ppb in 0.2% NaCl): 0.6
- Metallic, after-expectoration perception (panelists [1]; 0.1 ppb in 0.2% NaCl): 0.0
- Numbing, after-expectoration perception (panelists [1]; 0.1 ppb in 0.2% NaCl): 0.0
- Salt, after-expectoration perception (mean salt perception after expectoration) (panelists [1]; 0.1 ppb in 0.2% NaCl): 7.3
- Sour, after-expectoration perception (panelists [1]; 0.1 ppb in 0.2% NaCl): 0.0
- Sweet, after-expectoration perception (panelists [1]; 0.1 ppb in 0.2% NaCl): 0.0
- Level of the aromatics, basic tastes and chemical feeling factors after expectoration with increasing concentration (panelists [1]; 0.1 to 40.0/50.0 ppb): do not increase
- Salt perception after expectoration as the concentration increases (panelists [1]; 0.1 to 40.0/50.0 ppb in 0.2% NaCl): does not increase notably; also recorded: Does not show a notable increase
- Astringent, after-expectoration perception (panelists [1]; 0.5 ppb in 0.2% NaCl): 0.0
- Bitter, after-expectoration perception (panelists [1]; 0.5 ppb in 0.2% NaCl): 0.0
- Flinty/Mineral, after-expectoration perception (panelists [1]; 0.5 ppb in 0.2% NaCl): 0.7
- Metallic, after-expectoration perception (panelists [1]; 0.5 ppb in 0.2% NaCl): 0.2
- Numbing, after-expectoration perception (panelists [1]; 0.5 ppb in 0.2% NaCl): 0.0
- Salt, after-expectoration perception (mean salt perception after expectoration) (panelists [1]; 0.5 ppb in 0.2% NaCl): 8.1
- Sour, after-expectoration perception (panelists [1]; 0.5 ppb in 0.2% NaCl): 0.0
- Sweet, after-expectoration perception (panelists [1]; 0.5 ppb in 0.2% NaCl): 0.0
- Astringent, after-expectoration perception (panelists [1]; 1.0 ppb in 0.2% NaCl): 0.0
- Bitter, after-expectoration perception (panelists [1]; 1.0 ppb in 0.2% NaCl): 0.0
- Flinty/Mineral, after-expectoration perception (panelists [1]; 1.0 ppb in 0.2% NaCl): 0.5
- Metallic, after-expectoration perception (panelists [1]; 1.0 ppb in 0.2% NaCl): 0.0
- Numbing, after-expectoration perception (panelists [1]; 1.0 ppb in 0.2% NaCl): 0.0
- Salt, after-expectoration perception (mean salt perception after expectoration) (panelists [1]; 1.0 ppb in 0.2% NaCl): 7.3
- Sour, after-expectoration perception (panelists [1]; 1.0 ppb in 0.2% NaCl): 0.0
- Sweet, after-expectoration perception (panelists [1]; 1.0 ppb in 0.2% NaCl): 0.0
- Astringent, after-expectoration perception (panelists [1]; 10.0 ppb in 0.2% NaCl): 0.0
- Bitter, after-expectoration perception (panelists [1]; 10.0 ppb in 0.2% NaCl): 0.0
- Flinty/Mineral, after-expectoration perception (panelists [1]; 10.0 ppb in 0.2% NaCl): 0.3
- Metallic, after-expectoration perception (panelists [1]; 10.0 ppb in 0.2% NaCl): 0.0
- Numbing, after-expectoration perception (panelists [1]; 10.0 ppb in 0.2% NaCl): 0.0
- Salt, after-expectoration perception (mean salt perception after expectoration) (panelists [1]; 10.0 ppb in 0.2% NaCl): 7.2
- Sour, after-expectoration perception (panelists [1]; 10.0 ppb in 0.2% NaCl): 0.0
- Sweet, after-expectoration perception (panelists [1]; 10.0 ppb in 0.2% NaCl): 0.0
- Astringent, after-expectoration perception (panelists [1]; 50.0 ppb in 0.2% NaCl): 0.0
- Bitter, after-expectoration perception (panelists [1]; 50.0 ppb in 0.2% NaCl): 0.0
- Flinty/Mineral, after-expectoration perception (panelists [1]; 50.0 ppb in 0.2% NaCl): 0.4
- Metallic, after-expectoration perception (panelists [1]; 50.0 ppb in 0.2% NaCl): 0.0
- Numbing, after-expectoration perception (panelists [1]; 50.0 ppb in 0.2% NaCl): 0.0
- Salt, after-expectoration perception (mean salt perception after expectoration) (panelists [1]; 50.0 ppb in 0.2% NaCl): 7.7
- Sour, after-expectoration perception (panelists [1]; 50.0 ppb in 0.2% NaCl): 0.0
- Sweet, after-expectoration perception (panelists [1]; 50.0 ppb in 0.2% NaCl): 0.0
- Umami like swelling of lips and tongue, after expectoration (panelists [1]; all levels): Panelists also experience Umami like swelling of lips and tongue
- Salt perception from in-mouth to after expectoration (panelists [1]; all samples, 0.1 to 40.0/50.0 ppb): increases after expectoration (from in-mouth) in all samples; also recorded: noticeable increase
- Mean time needed to return to baseline (panelists [2]; 0.1 ppb in 0.2% NaCl): 3.4 min
- Mean time needed to return to baseline (min.) (panelists [2]; 0.1 ppb in 0.2% NaCl): 3.4 min
- Time needed to return to baseline as the concentration increases (panelists [2]; 0.1 to 40.0/50.0 ppb): No definitive trends are seen; also recorded: no definitive trend
- Mean time needed to return to baseline (panelists [2]; 0.5 ppb in 0.2% NaCl): 5.6 min
- Mean time needed to return to baseline (min.) (panelists [2]; 0.5 ppb in 0.2% NaCl): 5.6 min
- Mean time needed to return to baseline (panelists [2]; 1.0 ppb in 0.2% NaCl): 5.0 min
- Mean time needed to return to baseline (min.) (panelists [2]; 1.0 ppb in 0.2% NaCl): 5.0 min
- Mean time needed to return to baseline (panelists [2]; 10.0 ppb in 0.2% NaCl): 5.0 min
- Mean time needed to return to baseline (min.) (panelists [2]; 10.0 ppb in 0.2% NaCl): 5.0 min
- Mean time needed to return to baseline (panelists [2]; 50.0 ppb in 0.2% NaCl): 4.1 min
- Mean time needed to return to baseline (min.) (panelists [2]; 50.0 ppb in 0.2% NaCl): 4.1 min
